# Patent US10143731B2, “Peptides and combination of peptides for use in immunotherapy against various cancers” (immatics biotechnologies GmbH, priority 2015, dated 2018)
# Tests used:
# HLA-A*02 = test: MHC binding assay by UV-ligand exchange and beta2m ELISA, HLA-A*02; parameters: species or system human; conditions: binding to HLA-A*02 ranged by peptide exchange yield (UV-ligand exchange, β2m ELISA)
# Source text: (§1) MHC Binding Assays Candidate peptides for T cell based therapies according to the present invention were further tested for their MHC binding capacity (affinity). The individual peptide-MHC complexes were produced by UV-ligand exchange, where a UV-sensitive peptide is cleaved upon UV-irradiation, and exchanged with the peptide of interest as analyzed. Only peptide candidates that can effectively bind and stabilize the peptide-receptive MHC molecules prevent dissociation of the MHC complexes. To determine the yield of the exchange reaction, an ELISA was performed based on the detection of the light chain (β2m) of stabilized MHC complexes. The assay was performed as generally described in Rodenko et al. (Rodenko et al., 2006).
# (§2) 96 well MAXISorp plates (NUNC) were coated over night with 2 ug/ml streptavidin in PBS at room temperature, washed 4× and blocked for 1 h at 37° C. in 2% BSA containing blocking buffer. Refolded HLA-A*02:01/MLA-001 monomers served as standards, covering the range of 15-500 ng/ml. Peptide-MHC monomers of the UV-exchange reaction were diluted 100 fold in blocking buffer. Samples were incubated for 1 h at 37° C., washed four times, incubated with 2 ug/ml HRP conjugated anti-β2m for 1 h at 37° C., washed again and detected with TMB solution that is stopped with […]. Absorption was measured at 450 nm. Candidate peptides that show a high exchange yield (preferably higher than 50%, most preferred higher than 75%) are generally preferred for a generation and production of antibodies or fragments thereof, and/or T cell receptors or fragments thereof, as they show sufficient avidity to the MHC molecules and prevent dissociation of the MHC complexes.
# CD8+ T cells = test: In vitro T-cell priming assay (aAPCs loaded with peptide/MHC and anti-CD28, multimer staining readout); type: cell-based, human; conditions: for Wells positive [%]: in vitro immunogenicity of HLA class I peptides; for Wells (in vitro immunogenicity of HLA class I peptides): CD8+ T cells of healthy donors, three stimulation cycles with peptide/MHC and anti-CD28 coated beads
# Description: In an aspect, the peptides are pre-screened for immunogenicity before being included in the warehouse. By way of example, and not limitation, the immunogenicity of the peptides included in the warehouse is determined by a method comprising in vitro T-cell priming through repeated stimulations of CD8+ T cells from healthy donors with artificial antigen presenting cells loaded with peptide/MHC complexes and anti-CD28 antibody.
# In order to obtain information regarding the immunogenicity of the TUMAPs of the present invention, the inventors performed investigations using an in vitro T-cell priming assay based on repeated stimulations of CD8+ T cells with artificial antigen presenting cells (aAPCs) loaded with peptide/MHC complexes and anti-CD28 antibody.
# In order to perform in vitro stimulations by artificial antigen presenting cells loaded with peptide-MHC complex (pMHC) and anti-CD28 antibody, the inventors first isolated CD8+ T cells from fresh HLA-A*02 leukapheresis products via positive selection using CD8 microbeads (Miltenyi Biotec, Bergisch-Gladbach, Germany) of healthy donors obtained from the University clinics Mannheim, Germany, after informed consent.
# PBMCs and isolated CD8+ lymphocytes were incubated in T-cell medium (TCM) until use consisting of RPMI-Glutamax (Invitrogen, Karlsruhe, Germany) supplemented with 10% heat inactivated human AB serum (PAN-Biotech, Aidenbach, Germany), 100 U/ml Penicillin/100 μg/ml Streptomycin (Cambrex, Cologne, Germany), 1 mM sodium pyruvate (CC Pro, Oberdorla, Germany), 20 μg/ml Gentamycin (Cambrex). 2.5 ng/ml IL7 (PromoCell, Heidelberg, Germany) and 10 U/ml IL-2 (Novartis Pharma, Nürnberg, Germany) were also added to the TCM at this step.
# Generation of pMHC/anti-CD28 coated beads, T-cell stimulations and readout was performed in a highly defined in vitro system using four different pMHC molecules per stimulation condition and 8 different pMHC molecules per readout condition.
# The purified co-stimulatory mouse IgG2a anti human CD28 Ab 9.3 (Jung et al., 1987) was chemically biotinylated using Sulfo-N-hydroxysuccinimidobiotin as recommended by the manufacturer (Perbio, Bonn, Germany). Beads used were 5.6 μm diameter streptavidin coated polystyrene particles (Bangs Laboratories, Illinois, USA).
# pMHC used for positive and negative control stimulations were A*0201/MLA-001 (peptide […] (SEQ ID NO. 303) from modified Melan-A/MART-1) and A*0201/DDX5-001 ([…] from DDX5, SEQ ID NO. 304), respectively.
# 800.000 beads/200 μl were coated in 96-well plates in the presence of 4×12.5 ng different biotin-pMHC, washed and 600 ng biotin anti-CD28 were added subsequently in a volume of 200 μl. Stimulations were initiated in 96-well plates by co-incubating 1×10^6 CD8+ T cells with 2×10^5 washed coated beads in 200 μl TCM supplemented with 5 ng/ml IL-12 (PromoCell) for 3 days at 37° C. Half of the medium was then exchanged by fresh TCM supplemented with 80 U/ml IL-2 and incubating was continued for 4 days at 37° C. This stimulation cycle was performed for a total of three times. For the pMHC multimer readout using 8 different pMHC molecules per condition, a two-dimensional combinatorial coding approach was used as previously described (Andersen et al., 2012) with minor modifications encompassing coupling to 5 different fluorochromes. Finally, multimeric analyses were performed by staining the cells with Live/dead near IR dye (Invitrogen, Karlsruhe, Germany), CD8-FITC antibody clone SK1 (BD, Heidelberg, Germany) and fluorescent pMHC multimers. For analysis, a BD LSRII SORP cytometer equipped with appropriate lasers and filters was used. Peptide specific cells were calculated as percentage of total CD8+ cells. Evaluation of multimeric analysis was done using the FlowJo software (Tree Star, Oregon, USA). In vitro priming of specific multimer+CD8+ lymphocytes was detected by comparing to negative control stimulations.
# HLA-A*24 = test: MHC binding assay by UV-ligand exchange and beta2m ELISA, HLA-A*24; parameters: species or system human; conditions: binding to HLA-A*24 ranged by peptide exchange yield (UV-ligand exchange, β2m ELISA)
# Source text: as §1, §2
# [1] = tested on: advanced non-resectable HCC; conditions: patients with advanced non-resectable HCC; cited from earlier work
# HLA-A2 = HLA-A2 (Homo sapiens, UniProt P04439, D140Y/D185E/D98H/E176V/E277Q/G131W/G231S/I119V/I121R/I166T/I218V/L10V/L300P/L318F/N151K/N90K/P208A/P217A/Q86G/Q94H/R138H/R169H/T345S); conditions: prediction in US20150306197 A1 / US20110142842 A1, not tested further; cited from earlier work
Peptide exchange (HLA-A*02),Compound,other results
++++ (> = 75% = ++++),1 (LLYPEPWSV; listed as Homo sapiens) [compound 1],–
++++ (> = 75% = ++++),3 (KLEENGDLYL; listed as Homo sapiens) [compound 3],–
++++ (> = 75% = ++++),4 (KLMPGTYTL; listed as Homo sapiens) [compound 4],Wells positive [%] (CD8+ T cells): + (<20% = +)
++++ (> = 75% = ++++),12 (GLLPLLHRA; listed as Homo sapiens) [compound 12],Wells positive [%] (CD8+ T cells): ++++ (> = 70% = ++++)
++++ (> = 75% = ++++),14 (ILAKDLFEI; listed as Homo sapiens) [compound 14],–
++++ (> = 75% = ++++),16 (YTLDIPVLFGV; listed as Homo sapiens) [compound 16],–
++++ (> = 75% = ++++),34 (FLLATEVVTV; listed as Homo sapiens) [compound 34],–
++++ (> = 75% = ++++),51 (LLFSRLCGA; listed as Homo sapiens) [compound 51],–
++++ (> = 75% = ++++),84 (ALCPRIHEV; listed as Homo sapiens) [compound 84],–
++++ (> = 75% = ++++),92 (GLLFSLRSV; listed as Homo sapiens) [compound 92],–
++++ (> = 75% = ++++),95 (GLLGSLFFL; listed as Homo sapiens) [compound 95],–
++++ (> = 75% = ++++),112 (SLGKFTFDV; listed as Homo sapiens) [compound 112],–
++++ (> = 75% = ++++),125 (SLADYEHFV; listed as Homo sapiens) [compound 125],–
++++ (> = 75% = ++++),126 (QMFQYFITV; listed as Homo sapiens) [compound 126],–
++++ (> = 75% = ++++),129 (RLQDILWFL; listed as Homo sapiens) [compound 129],–
++++ (> = 75% = ++++),133 (ALLPRLHQL; listed as Homo sapiens) [compound 133],–
++++ (> = 75% = ++++),147 (YLMDDTVEI; listed as Homo sapiens) [compound 147],–
++++ (> = 75% = ++++),153 (FISERVEVV; listed as Homo sapiens) [compound 153],–
–,158 (HYSQELSLLYL; listed as Homo sapiens) [compound 158],Wells positive [%] (CD8+ T cells): + (<20% = +); Peptide exchange (HLA-A*24): ++++ (> = 75% = ++++)
–,159 (LYNKGFIYL; listed as Homo sapiens) [compound 159],Wells positive [%] (CD8+ T cells): ++++ (> = 70% = ++++); Peptide exchange (HLA-A*24): ++++ (> = 75% = ++++)

Peptide exchange (HLA-A*02),Compound,other results
–,163 (DYLKGLASF; listed as Homo sapiens) [compound 163],Wells positive [%] (CD8+ T cells): + (<20% = +); Peptide exchange (HLA-A*24): ++++ (> = 75% = ++++)
–,165 (DYTTWTALL; listed as Homo sapiens) [compound 165],Wells positive [%] (CD8+ T cells): + (<20% = +); Peptide exchange (HLA-A*24): ++++ (> = 75% = ++++)
–,167 (NYINRILKL; listed as Homo sapiens) [compound 167],Wells positive [%] (CD8+ T cells): + (<20% = +); Peptide exchange (HLA-A*24): ++++ (> = 75% = ++++)
–,204 (TYELRYFQI; listed as Homo sapiens) [compound 204],Wells positive [%] (CD8+ T cells): + (<20% = +); Peptide exchange (HLA-A*24): ++++ (> = 75% = ++++)
++++ (> = 75% = ++++),229 (AILAHLNTV; listed as Homo sapiens) [compound 229],–
++++ (> = 75% = ++++),245 (SLLDLPLSL; listed as Homo sapiens) [compound 245],–
++++ (> = 75% = ++++),248 (YLDRFLAGV; listed as Homo sapiens) [compound 248],–
++++ (> = 75% = ++++),249 (GLCERLVSL; listed as Homo sapiens) [compound 249],Wells positive [%] (CD8+ T cells): + (<20% = +)
++++ (> = 75% = ++++),257 (GLYTDPCGV; listed as Homo sapiens) [compound 257],–
++++ (> = 75% = ++++),258 (LLSERFINV; listed as Homo sapiens) [compound 258],–
–,291 (KLDETGNSL; listed as Homo sapiens) [compound 291],Wells (in vitro immunogenicity of HLA class I peptides) (CD8+ T cells): + (<20% = +)
–,292 (GMMTAILGV; listed as Homo sapiens) [compound 292],Wells (in vitro immunogenicity of HLA class I peptides) (CD8+ T cells): + (<20% = +)
–,293 (FLVDGSWSI; listed as Homo sapiens) [compound 293],Wells (in vitro immunogenicity of HLA class I peptides) (CD8+ T cells): + (<20% = +)
–,296 (TYVDSSHTI; listed as Homo sapiens) [compound 296],Wells (in vitro immunogenicity of HLA class I peptides) (CD8+ T cells): + (<20% = +)
–,298 (RYLEGTSCI; listed as Homo sapiens) [compound 298],Wells (in vitro immunogenicity of HLA class I peptides) (CD8+ T cells): + (<20% = +)
–,300 (AYVLRLETL; listed as Homo sapiens) [compound 300],Wells (in vitro immunogenicity of HLA class I peptides) (CD8+ T cells): + (<20% = +)
–,301 (AYKPGALTF; listed as Homo sapiens) [compound 301],Wells (in vitro immunogenicity of HLA class I peptides) (CD8+ T cells): + (<20% = +)
–,CNC(=O)c1cc(Oc2ccc(NC(=O)Nc3ccc(Cl)c(C(F)(F)F)c3)cc2)ccn1 [Sorafenib],increase of survival [1]: about 3 months
–,KLFTSVFGV (listed as Homo sapiens) [SEQ ID No. 305],predicted binding to HLA-A2 / HLA-A*0201 (HLA-A2): binding to HLA-A*0201
